Experiment: pKa of representative cationic lipids
Type: physicochemical
Details: Table 2, lipids of Formula (II)

pKa	SMILES
6.27	CCCCCCCCC(=O)N(CCCN(C)C)C(CCCCCCCCCOC(=O)C(CCCC)CCCCCC)CCCCCCCCCOC(=O)C(CCCC)CCCCCC (stereo not shown) [II-17]
6.14	CCCCC(CCCC)OC(=O)CCCCCCCCC(CCCCCCCCC(=O)OC(CCCC)CCCC)N(CCCN(C)C)C(=O)CCCCCCCC(=O)OC(CCCC)CCCC [II-24]

Same assay, conditions: first Table 12, representative lipid compounds XIII

SMILES	pKa
CCCCCCCCCCN(C(=O)CCN1CCCC1)C(CCCCCCCCC(=O)OCC(CCCC)CCCCCC)CCCCCCCCC(=O)OCC(CCCC)CCCCCC (stereo not shown) [XIII-33]	6.19
CCCCCCCCCCN(C(=O)CCCCN(CCCC)CCCC)C(CCCCCCCCC(=O)OCC(CCCC)CCCCCC)CCCCCCCCC(=O)OCC(CCCC)CCCCCC (stereo not shown) [XIII-31]	5.05
CCCCCCCCCCN(C(=O)CCCN1CCCC1)C(CCCCCC(=O)OCC(CCCCCC)CCCCCCCC)CCCCCC(=O)OCC(CCCCCC)CCCCCCCC (stereo not shown) [XIII-29]	6.81
CCCCCCCCCN(C(=O)CCCN(C)C)C(CCCCCCCCCOC(=O)C(CCCC)CCCCCC)CCCCCCCCCOC(=O)C(CCCC)CCCCCC (stereo not shown) [XIII-32]	6.41
CCCCCCC(CCCC)COC(=O)CCCCCCCCC(CCCCCCCCC(=O)OCC(CCCC)CCCCCC)N(CC(CC)CCCC)C(=O)CCCN(C)C (stereo not shown) [XIII-20]	6.84

More lines, now with the values ahead:

pKa	SMILES
6.83	CCCCCCCCCCN(C(=O)CCCCN1CCCC1)C(CCCCCCCCC(=O)OCC(CCCC)CCCCCC)CCCCCCCCC(=O)OCC(CCCC)CCCCCC (stereo not shown) [XIII-9]
6.47	CCCCCCCCCCN(C(=O)CCCN(C)C)C(CCCCCCCCC(=O)OCC(CCCC)CCCCCC)CCCCCCCCC(=O)OCC(CCCC)CCCCCC (stereo not shown) [XIII-18]
6.77	CCCCCCCCCCN(C(=O)CCCN(C)C)C(CCCCCC(=O)OCC(CCCCCC)CCCCCCCC)CCCCCC(=O)OCC(CCCCCC)CCCCCCCC (stereo not shown) [XIII-16]
6.68	CCCCCCCCCCN(C(=O)CCCCN(CC)CC)C(CCCCCCCCC(=O)OCC(CCCC)CCCCCC)CCCCCCCCC(=O)OCC(CCCC)CCCCCC (stereo not shown) [XIII-8]
6.2	CCCCCCCCCN(C(=O)CCN(C)C)C(CCCCCCCCC(=O)OCC(CCCC)CCCCCC)CCCCCCCCC(=O)OCC(CCCC)CCCCCC (stereo not shown) [XIII-25]
6.74	CCCCCCCCCCN(C(=O)CCCCN(C)C)C(CCCCCCCCC(=O)OCC(CCCC)CCCCCC)CCCCCCCCC(=O)OCC(CCCC)CCCCCC (stereo not shown) [XIII-7]
